Measurements from US9790233B2, “Compositions and methods of modulating 15-PGDH activity” (CASE WESTERN RESERVE UNIVERSITY, priority 2012, dated 2017).
Read-outs that look alike come from different tables or passages of the source.

How the values were obtained:
[1] = test system: 15-PGDH luciferase fusion construct in LS174T reporter cell line; assay: 15-PGDH-luciferase fusion gene reporter induction, LS174T cells; type: cell-based; conditions: Homo sapiens
[2] = test system: 15-PGDH luciferase fusion construct in V9m reporter cell line; assay: 15-PGDH-luciferase fusion gene reporter induction, V9m cells; type: cell-based
15-PGDH protein = 15-PGDH protein (Homo sapiens (Human), UniProt P15428); assay: Inhibition of enzymatic activity of recombinant 15-PGDH in vitro (tritium transfer from PGE2 or NADH fluorescence); type: biochemical; conditions: for IC50: recombinant 15-PGDH in vitro, read-out: Enzyme inhibition (IC50)
[3] = test system: 15-PGDH luciferase fusion construct in Vaco503 reporter cell line; assay: 15-PGDH-luciferase fusion gene reporter induction, V503 cells; type: cell-based
[4] = test system: 15-PGDH-luciferase fusion reporter in V9m, LS174T and V503 cells; assay: 15-PGDH-luciferase fusion gene reporter induction, stated for the three cell line backgrounds together; type: cell-based; conditions: for induction of 15-PGDH-luciferase reporter in cell lines (SW054384 analogues): […] and […]
A549 cells [5] = assay: PGE2 levels in the medium of IL1-beta stimulated A549 cells; type: cell-based; conditions: for Decrease PGE-2 (IL-1beta-A549, %): media of IL-1beta stimulated A549 cells;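 for all read-outs here: PGE2 in the collected culture medium quantified by enzyme immunoassay (ELISA), with data drawn from three independent experiments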
A549 cells [6] = assay: Cellular toxicity on A549 cells (CellTiter-Glo); type: cell-based; design: Decrease Cell viability in A549 cell (%): concentration or dose not given beside the values; conditions: for Decrease Cell viability in A549 cell (%): A549 cells
[7] = Metabolic stability with murine liver S9; type: in vitro ADME
Protocol: SW054384 (2 mM in DMSO) was incubated with Murine S9 (Lot KWB) fraction and Phase I (NADPH Regenerating System) cofactors for 0-240 minutes. Reactions were quenched with a 1 mL (1:1) of MeOH/(+)IS/0.2% Formic Acid, vortexed for 15 seconds, incubated at RT for 10 minutes and spun for 5 minutes at 2400 rpms. […] Supernatant (800 μL) was transferred to an HPLC vial (w/out insert) and analyzed by HPLC/MS. A: dH2O+0.1% FA B: MeOH+0.1% FA
SW125991 (2 mM in DMSO) was incubated with Murine S9 (Lot KWB) fraction and Phase I (NADPH Regenerating System) cofactors for 0-240 minutes. Reactions were quenched with 1 mL (1:1) of methanol containing 0.2% formic acid and 100 ng/ml IS (IS final conc.=50 ng/ml). Samples were vortexed for 15 seconds, incubated at RT for 10 minutes and spun for 5 minutes at 2400 rpm. […] Supernatant (800 μL) was transferred to an HPLC vial (w/out insert). Analyzed by Qtrap 3200 mass spectrometer.

15-PGDH mRNA = 15-PGDH mRNA levels by real-time PCR; type: cell-based; conditions: treated colon cancer cell lines
[8] = read-out: Ls174T-SC1 reporter activity, % ([…]), LS174T reporter cells, […] compound, % induction of luciferase activity over basal level, read-out: Ls174T-SC1 reporter activity, % (2.5 μM)
[9] = read-out: Ls174T-SC1 reporter activity, % ([…]), LS174T reporter cells, […] compound, % induction of luciferase activity over basal level, read-out: Ls174T-SC1 reporter activity, % (7.5 μM)
[10] = read-out: V9M-SC3 Reporter activity ([…]) (%), V9m reporter cells, […] compound, % induction of luciferase activity over basal level, read-out: V9M-SC3 Reporter activity (2.5 μM) (%)
[11] = read-out: V9M-SC3 Reporter activity ([…]), %, V9m reporter cells, […] compound, % induction of luciferase activity over basal level, read-out: V9M-SC3 Reporter activity (7.5 μM), %
[12] = read-out: V503-3H9-7 reporter activity, % ([…]), V503 reporter cells, […] compound, % induction of luciferase activity over basal level, read-out: V503-3H9-7 reporter activity, % (2.5 μM)
[13] = read-out: V503-3H9-7 reporter activity, % ([…]), V503 reporter cells, […] compound, % induction of luciferase activity over basal level, read-out: V503-3H9-7 reporter activity, % (7.5 μM)

Sequence of 15-PGDH protein (P15428 whole entry, the tested form may be a part): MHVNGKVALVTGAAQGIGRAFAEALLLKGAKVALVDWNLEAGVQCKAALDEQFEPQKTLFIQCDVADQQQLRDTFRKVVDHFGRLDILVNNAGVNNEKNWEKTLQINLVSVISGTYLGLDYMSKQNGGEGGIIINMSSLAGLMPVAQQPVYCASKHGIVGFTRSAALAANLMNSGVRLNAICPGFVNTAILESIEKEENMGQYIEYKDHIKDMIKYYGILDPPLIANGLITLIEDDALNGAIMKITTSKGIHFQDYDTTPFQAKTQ

Compound | activation at […] [1, 8] | activation at […] [1, 9] | activation at […] [2, 10] | activation at […] [2, 11] | Decrease PGE-2 (IL-1beta-A549, %) (A549 cells [5]) | activation at […] [3, 12] | activation at […] [3, 13] | Decrease Cell viability in A549 cell (%) (A549 cells [6]) | IC50 (15-PGDH protein) | further results
C[S+]([O-])c1sc2nc(-c3cccs3)cc(-c3ccccc3)c2c1N (stereo not drawn) [SW208079, 2-(methylsulfinyl)-4-phenyl-6-(thiophen-2-yl)thieno[2,3-b]pyridin-3-amine] |  |  |  |  |  |  |  |  |  | activation at […] ([1]; read-out: LS174T reporter activity ([…]), […], % increased luciferase activity over basal level, read-out: LS174T reporter activity (2.5 uM)): 53.4%; activation at […] ([1]; read-out: LS174T reporter activity ([…]), […], % increased luciferase activity over basal level, read-out: LS174T reporter activity (7.5 uM)): 43.8%; activation at […] ([2]; read-out: V9M reporter activity ([…]), […], % increased luciferase activity over basal level, 100 = doubling, read-out: V9M reporter activity (2.5 uM)): 36%; activation at […] ([2]; read-out: V9M reporter activity ([…]), […], % increased luciferase activity over basal level, 100 = doubling, read-out: V9M reporter activity (7.5 uM)): 32.8%; IC50 higher compared to SW033291 (15-PGDH protein; effect of carbon side chain length): over 60 fold; activation at […] ([3]; read-out: V503 reporter activity ([…]), […], % increased luciferase activity over basal level, read-out: V503 reporter activity (2.5 uM)): 85.3%; activation at […] ([3]; read-out: V503 reporter activity ([…]), […], % increased luciferase activity over basal level, read-out: V503 reporter activity (7.5 uM)): 61.8%; reporter induction in reporter cell lines [4]: marked loss of activity in inducing the cell line reporters
CCCC[S+]([O-])c1sc2nc(-c3nccs3)ccc2c1N (stereo not drawn) [SW206992, 2-(butylsulfinyl)-6-(thiazol-2-yl)thieno[2,3-b]pyridin-3-amine] |  |  |  |  |  |  |  |  |  | compound concentration at maximal effect on PGE2 (A549 cells [5]; IL-1β 16 h, compound 8 h): 2.5 µM; effect on CellTitre-Glo levels (A549 cells [6]; 24 hours, concentrations of up to 10 uM): No effect on CellTitre-Glo levels; Toxicity (A549 cells [6]; concentration needed to decrease cell numbers in a cell culture assay, Table 3): >7.5 µM; exposure needed to induce maximal reporter induction ([4]; 24 hours, three cell line backgrounds): > 1000 nM; Concentration for Full Cell Line Reporter Induction ([4]; maximal induction of reporter, Table 3): >1 µM
COc1ccc(OC)c(N(CC(=O)Nc2nccs2)S(=O)(=O)c2ccccc2)c1 [SW203691] | 5.47% | 22% | 7.78% | 19.8% | 36.76% | 47.1% | 90% | 0.00% |  | inhibition at […] (15-PGDH protein; read-out: Enzyme inhibition % ([…]), recombinant 15-PGDH, […] compound, read-out: Enzyme inhibition % (7.5 μM)): 3.12%
COc1ccc(OC)c(N(CC(=O)Nc2ccncc2)S(=O)(=O)c2ccccc2)c1 [SW202938] | 217% | 241% | 155% | 230% | −47.55% | 309% | 301% |  | 2.67 µM | 
COc1ccc(OC)c(N(CC(=O)Nc2cccnc2)S(=O)(=O)c2ccc(Br)cc2)c1 [SW203737] | 76.7% | 85.1% | 93.4% | 103% | 47.78% | 176% | 154% | −2.56% |  | lowering of PGE2 levels in media (A549 cells [5]): show activity in lowering PGE2
COc1ccc(OC)c(N(CC(=O)N2CCOCC2)S(=O)(=O)c2ccccc2)c1 [SW125991] | 67.3% | 83.3% | 77.4% | 74.6% | 31.33% | 161% | 149% | −2.13% |  | lowering of PGE2 levels in media (A549 cells [5]): show activity in lowering PGE2; metabolic stability [7]: marked improvement in metabolic stability; half-life ([7]; mouse, liver S9 fraction, Murine S9 fraction, Phase I cofactors, 0-240 minutes): 3.4 h; toxicity by CellTiter-Glo (A549 cells [6]; 24 hours): no toxicity
COc1ccc(OC)c(N(CC(=O)Nc2csnc2C)S(=O)(=O)c2ccccc2)c1 [SW203703] | 85.8% | 80.2% | 108% | 106% | 31.90% | 143% | 78% | −1.97% |  | lowering of PGE2 levels in media (A549 cells [5]): show activity in lowering PGE2; induction of 15-PGDH-luciferase reporter in cell lines (SW054384 analogues) [4]: active in inducing the 15-PGDH-luciferase reporter
COc1ccc(OC)c(N(CC(=O)Nc2ccnnc2)S(=O)(=O)c2ccccc2)c1 [SW203685] | 22.3% | 254% | 100% | 204% | 17.84% | 122% | -33.2% |  | 5 µM | 
O=C(c1ccc2nc(-c3ccccc3)c(-c3ccccc3)nc2c1)N1CCCCC1 [SW145753] |  |  |  |  |  |  |  |  |  | 15-PGDH mRNA levels (real-time PCR) (15-PGDH mRNA): do not in general alter 15-PGDH mRNA levels; PGE2 levels in medium (A549 cells [5]; IL1-beta 23 hours, compound added for the last 5 hours): clear inhibition of 15-PGDH activity; luciferase activity of cells expressing 15-PGDH luciferase fusion construct ([4]; V9m, LS174T, V503, FIG. 1): increase luciferase activity
COc1ccc(OC)c(N(CC(=O)Nc2cccnc2)S(=O)(=O)c2ccc(F)cc2)c1 [SW203736] | 127% | 156% | 132% | 145% | 31.86% | 244% | 204% | −3.06% |  | lowering of PGE2 levels in media (A549 cells [5]): show activity in lowering PGE2
COc1ccc(S(=O)(=O)N(CC(=O)N2CCCCC2)c2cc(OC)ccc2OC)cc1 [SW207999] | 98% | 123% | 128% | 124% |  | 124% | 110% |  |  | induction of 15-PGDH-luciferase reporter in cell lines (SW054384 analogues) [4]: active in inducing the 15-PGDH-luciferase reporter
COc1ccc(S(=O)(=O)N(CC(=O)Nc2cccnc2)c2cc(OC)ccc2OC)cc1 [SW202940] | 148% | 211% | 147% | 181% | 80.46% | 181% | 183% | 45.18% | ~5 µM | induction of 15-PGDH-luciferase reporter in cell lines (SW054384 analogues) [4]: active in inducing 15-PGDH-luciferase reporter activity
COc1ccc(S(=O)(=O)N(CC(=O)Nc2ccncc2)c2cc(OC)ccc2OC)cc1 [SW202989] | 159% | 171% | 188% | 184% | 69.40% | 208% | 214% | 30.59% | 0.427 µM | 
COc1ccc(OC)c(N(CC(=O)Nc2ccc(C)nc2)S(=O)(=O)c2ccccc2)c1 [SW202988] | 40.5% | 125% | 7.36% | 54.4% | −16.79% | 125% | 258% |  | ~10 µM | 
COc1ccc(OC)c(N(CC(=O)Nc2cncnc2)S(=O)(=O)c2ccccc2)c1 [SW203683] | 3.76% | 210% | 137% | 191% | −3.41% | 104% | -41% |  | ~7 µM | 
COc1ccc(OC)c(N(CC(=O)Nc2cc(C)no2)S(=O)(=O)c2ccccc2)c1 [SW203704] | 8.64% | 12.5% | 8.71% | 8.04% | 22.33% | 52.8% | 37.8% | −2.70% |  | induction of 15-PGDH-luciferase reporter in cell lines (SW054384 analogues) [4]: active in inducing the 15-PGDH-luciferase reporter
